Reference: patent US20240254138A1, “TRICYCLIC PYRIMIDINES AS CYCLIN-DEPENDENT KINASE 7 (CDK7) INHIBITORS” (JANSSEN PHARMACEUTICA NV, priority 2021, published 2024)
Like-named read-outs stand apart in the source and are kept apart here.

Tests used:
[1] = test system: RNA Polymerase II Serine 5 phosphorylation (Rpb1 CTD, downstream substrate of CDK7) in A549 cells; test: Imaging-based cellular RNA PolII Ser5 phosphorylation assay in A549 cells; type: cell-based, human; conditions: wild-type CDK7, RNA PolII Ser5 phosphorylation, averaged over all measurements; for IC50: Homo sapiens, A549, A549 cells, read-out: CDK7_A549 Wild-type CDK7 (pIC50) (converted); for CDK7_A549 Wild-type CDK7 (pIC50): A549 cells
Summary of the method: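 IC50 derived by fitting % control (DMSO high, 10 μM reference low) against concentration, with Hill slope. Readout: high-content imaging of phospho-Ser5 Rpb1 CTD antibody staining in fixed, permeabilized A549 cells exposed to compound 3 h after 20 h culture in 1% FBS DMEM.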

[2] = test system: RNA Polymerase II Serine 5 phosphorylation in A549 cells overexpressing CDK7-mutant (C312S); test: Imaging-based cellular RNA PolII Ser5 phosphorylation assay in A549 cells overexpressing CDK7-mutant (C312S); type: cell-based, human; conditions: RNA PolII Ser5 phosphorylation, averaged over all measurements; for IC50: Homo sapiens, A549, A549 cells overexpressing CDK7-mutant (C312S), read-out: CDK7_A549 mutant hCDK7(pIC50) (converted); for CDK7_A549 mutant hCDK7(pIC50): A549 cells overexpressing CDK7-mutant (C312S)
Summary of the method: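 Readout was automated imaging of anti-phospho-Ser5 Rpb1 CTD immunofluorescence, with IC50 fitted to % control versus concentration. Cells were A549 stably overexpressing non-covalently targetable CDK7 C312S alongside wild-type, exposed to compound 3 h at 37 °C. DMSO and 10 μM reference compound served as controls.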

[3] = target: CDK7/cyclinH/MAT1 trimeric complex (Homo sapiens, UniProt P50613); test: In vitro CDK7 assay, potency of irreversible covalent inhibitors (kinact/KI), coupled PK/LDH ADP readout at 340 nm
[4] = CDK7 (KI(μM)), […], 1 mM ATP, room temperature, averaged values over all measurements
[5] = read-out: CDK7 (kinact, s^−1), kinact = maximal rate of inactivation, 1 mM ATP, room temperature, averaged values over all measurements
[6] = read-out: CDK7 (kinact/KI, M^−1*s^−1), potency of irreversible covalent inhibitors, 1 mM ATP, room temperature, averaged values over all measurements
[7] = read-out: CDK7 (20 nM enz.) (kinact/KI, M^−1*s^−1), 20 nM enzyme
[8] = CDK7 (20 nM enz.) (KI, μM), 20 nM enzyme
[9] = read-out: CDK7 (20 nM enz.) (kinact, s^−1), 20 nM enzyme
[10] = read-out: CDK7 (20 nM enz.) (kobs/[I], M^−1*s^−1), 20 nM enzyme

CDK7/cyclinH/MAT1 trimeric complex, sequence (P50613 whole entry): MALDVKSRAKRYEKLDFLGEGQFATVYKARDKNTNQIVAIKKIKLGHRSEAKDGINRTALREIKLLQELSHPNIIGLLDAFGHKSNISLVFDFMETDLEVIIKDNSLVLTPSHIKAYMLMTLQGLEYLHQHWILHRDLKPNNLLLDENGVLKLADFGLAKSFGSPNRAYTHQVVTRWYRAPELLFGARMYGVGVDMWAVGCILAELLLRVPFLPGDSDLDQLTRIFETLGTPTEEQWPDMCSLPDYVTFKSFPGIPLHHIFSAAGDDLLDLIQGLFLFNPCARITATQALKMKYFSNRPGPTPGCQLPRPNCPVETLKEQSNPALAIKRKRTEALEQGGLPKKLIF
CDK7/cyclinH/MAT1 trimeric complex, sequence (P51946 whole entry partner): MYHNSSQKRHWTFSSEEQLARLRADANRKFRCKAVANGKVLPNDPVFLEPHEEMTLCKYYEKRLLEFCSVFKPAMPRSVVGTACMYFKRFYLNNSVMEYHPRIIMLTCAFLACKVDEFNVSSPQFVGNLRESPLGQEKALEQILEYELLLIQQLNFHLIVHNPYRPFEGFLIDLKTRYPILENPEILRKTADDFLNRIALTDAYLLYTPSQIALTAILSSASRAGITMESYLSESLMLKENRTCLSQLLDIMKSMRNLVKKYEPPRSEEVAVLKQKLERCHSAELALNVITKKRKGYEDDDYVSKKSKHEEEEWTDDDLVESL
CDK7/cyclinH/MAT1 trimeric complex, sequence (P51948 whole entry partner): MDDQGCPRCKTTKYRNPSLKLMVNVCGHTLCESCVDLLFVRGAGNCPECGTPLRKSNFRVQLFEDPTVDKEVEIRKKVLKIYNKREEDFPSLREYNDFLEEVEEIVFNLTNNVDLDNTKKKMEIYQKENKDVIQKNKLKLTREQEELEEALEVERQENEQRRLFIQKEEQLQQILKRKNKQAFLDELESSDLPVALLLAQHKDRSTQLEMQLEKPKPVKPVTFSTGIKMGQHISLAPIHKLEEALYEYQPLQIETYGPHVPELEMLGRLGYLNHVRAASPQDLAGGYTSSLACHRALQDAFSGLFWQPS

Row | IC50 [1] [nM] | IC50 [2] [nM] | kinact/KI [3, 7] [M⁻¹ s⁻¹] | Ki [3, 8] [µM] | kinact [3, 9] [s⁻¹] | kinact/KI [3, 10] [M⁻¹ s⁻¹] | SMILES | also measured
1 | 182 | > 10000 |  |  |  |  | C=CC(=O)N1CC(c2ncc(-c3ccc4c(c3)Nc3nccc(N5CCOCC5)c3CO4)cn2)C1 [Compound 56] | Ki [3, 4]: 0.0673 µM; kinact [3, 5]: 6.99e-05 s⁻¹; kinact/KI [3, 6]: 1040 M⁻¹ s⁻¹
2 | 72.4 |  | 1480 |  |  |  | C=CC(=O)N1CC(N2CCC(c3cc(C)c4c(c3)Nc3nccc(C5CCOCC5)c3CO4)CC2)C1 [Compound 59] | CDK7_A549 mutant hCDK7(pIC50) [2]: <5.4
3 | 977 | > 10000 | 502 | 0.128 | 6.43e-05 |  | C=CC(=O)N1CC(N2CCC(c3ccc4c(c3)Nc3ncc(Cl)c(N5CCS(=O)(=O)CC5)c3CO4)CC2)C1 [Compound 60] | 
4 | 1620 | > 10000 | 36.6 | 1.32 | 4.84e-05 |  | C=CC(=O)N1CC(c2ccnc(-c3ccc4c(c3)Nc3nccc(N5CCOCC5)c3CO4)c2)C1 [Compound 61] | 
5 | 77.6 | > 10000 | 2410 | 0.0266 | 6.42e-05 |  | C=CC(=O)N1CC(N2CCC(c3cc(F)c4c(c3)Nc3nccc(N5CCOCC5)c3CO4)CC2)C1 [Compound 62] | 
6 | > 10000 | > 10000 | 32 | 0.445 | 1.43e-05 |  | C=CC(=O)N1CCC2(CC1)CC(Cc1ccc3c(c1)Nc1nccc(C4CCOCC4)c1CO3)C2 [Compound 64] | 
7 |  |  |  |  |  | 1030 | C=CC(=O)N1CC(N2CCC(c3cc(C)c4c(c3)Nc3nccc(N5CCOCC5)c3CO4)CC2)C1 [Compound 66] | CDK7_A549 Wild-type CDK7 (pIC50) [1]: 7.16; CDK7_A549 mutant hCDK7(pIC50) [2]: <5
8 | 37.2 | 5890 |  |  |  | 766 | C=CC(=O)N1CCC(N2CCC(c3cc(C)c4c(c3)Nc3nccc(N5CCOCC5)c3CO4)CC2)CC1 [Compound 79] | 
9 | 81.3 | 4370 |  |  |  | 608 | C=CC(=O)N1CCC(N2CC(c3cc(Cl)c4c(c3)Nc3nccc(-c5cnn(C)c5)c3CO4)C2)CC1 [Compound 85] | 
10 | 1580 | > 10000 | 63.1 | 0.397 | 2.5e-05 |  | C=CC(=O)N1CCC(N2CC(c3cc(Cl)c4c(c3C)Nc3nccc(C5CCOCC5)c3CO4)C2)CC1 [Compound 86] | 
11 |  |  |  |  |  | 1740 | C=CC(=O)N1CC(N2CCC(c3cc(Cl)c4c(c3)Nc3nccc(N5CCOCC5)c3CO4)CC2)C1 [Compound 91] | CDK7_A549 Wild-type CDK7 (pIC50) [1]: 7.42; CDK7_A549 mutant hCDK7(pIC50) [2]: <5
12 | 288 | > 10000 | 101 | 0.48 | 4.87e-05 |  | C=CC(=O)N1CCC(N2CCC(c3ccc4c(c3)Nc3nccc(N5CCS(=O)(=NC)CC5)c3CO4)CC2)CC1 [Compound 95] | 
13 | 44.7 | > 10000 |  |  |  | 1440 | C=CC(=O)N1CC(N2CCC(c3cc(C)c4c(c3)Nc3nccc(-c5cnn(C)c5)c3CO4)CC2)C1 [Compound 99] | 
14 | 51.3 | 3310 |  |  |  |  | C=CC(=O)N1CCC(N2CC(c3cc(C)c4c(c3)Nc3nccc(-c5cnn(C)c5)c3CO4)C2)CC1 [Compound 100] | CDK7 (20 nM enz.) (kinact, s^−1) ([3]; 20 nM enzyme): 5.051e-05 s⁻¹; CDK7 (20 nM enz.) (kinact/KI, M^−1*s^−1) ([3]; 20 nM enzyme): 1179.87 M⁻¹ s⁻¹
15 | 64.6 | > 10000 |  |  |  | 1110 | C=CC(=O)N1CC(N2CCC(c3cc(Cl)c4c(c3)Nc3nccc(C5CCOCC5)c3CO4)CC2)C1 [Compound 101] | 
16 | 40.7 | 3550 | 1630 | 0.0268 | 4.38e-05 |  | C=CC(=O)N1CCC(N2CC(c3cc4c(c(C(F)(F)F)c3)OCc3c(-c5cnn(C)c5)ccnc3N4)C2)CC1 [Compound 102] | 
17 | 126 | > 10000 | 2020 | 0.0424 | 8.56e-05 |  | C=CC(=O)N1CC(N2CCC(c3cc(Cl)c4c(c3)Nc3nccc(N5CCS(=O)(=O)CC5)c3CO4)CC2)C1 [Compound 103] | 
18 | 16.2 | 2570 | 2260 | 0.0256 | 5.8e-05 |  | C=CC(=O)N1CCC(N2CCC(c3cc(C)c4c(c3)Nc3nccc(-c5cnn(C)c5)c3CO4)CC2)CC1 [Compound 105] | 
19 | 110 | > 10000 | 943 | 0.056 | 5.28e-05 |  | C=CC(=O)N1CC(N2CCC(c3ccc4c(c3)Nc3nccc(N5CCOCC5)c3CO4)CC2)C1 [Compound 107] | 

The remaining lines, values behind:

Row | SMILES | IC50 [1] [nM] | IC50 [2] [nM] | kinact/KI [3, 7] [M⁻¹ s⁻¹] | Ki [3, 8] [µM] | kinact [3, 9] [s⁻¹] | kinact/KI [3, 10] [M⁻¹ s⁻¹] | also measured
20 | O=C(/C=C/CN1CCOCC1)N1CC(N2CCC(c3ccc4c(c3)Nc3nccc(N5CCOCC5)c3CO4)CC2)C1 [Compound 57] | 1200 | > 3980 |  |  |  |  | Ki [3, 4]: 0.248 µM; kinact [3, 5]: 0.000129 s⁻¹; kinact/KI [3, 6]: 518 M⁻¹ s⁻¹
21 | C=CC(=O)N1CC(c2cc(-c3ccc4c(c3)Nc3nccc(N5CCOCC5)c3CO4)ccn2)C1 [Compound 58] | 490 | > 10000 |  |  |  |  | Ki [3, 4]: 0.112 µM; kinact [3, 5]: 5.76e-05 s⁻¹; kinact/KI [3, 6]: 516 M⁻¹ s⁻¹
22 | C=CC(=O)N1CC(N2CCC(c3ccc4c(c3)Nc3nccc(N5CCOC[C@@H]5C)c3CO4)CC2)C1 [Compound 63] | 288 | > 10000 | 885 | 0.0857 | 7.59e-05 |  | 
23 | C=CC(=O)Nc1ccc(CCc2ccc3c(c2)Nc2nccc(N4CCOCC4)c2CO3)cn1 [Compound 65] | 67.6 | 8710 |  |  |  | 1160 | 
24 | C=CC(=O)N1CC(N2[C@@H]3CC[C@H]2C[C@@H](c2ccc4c(c2)Nc2nccc(N5CCOCC5)c2CO4)C3)C1 [Compound 68] |  |  |  |  |  |  | CDK7_A549 Wild-type CDK7 (pIC50) [1]: 7.4; CDK7_A549 mutant hCDK7(pIC50) [2]: 5.14; CDK7 (20 nM enz.) (kobs/[I], M^−1*s^−1) ([3]; 20 nM enzyme): 1369 M⁻¹ s⁻¹
25 | C=CC(=O)N1CC(N2CCC(c3cc(C)c4c(c3)Nc3nccc(N5CCS(=O)(=O)CC5)c3CO4)CC2)C1 [Compound 71] | 245 | > 10000 | 973 | 0.0575 | 5.6e-05 |  | 
26 | C=CC(=O)N1CC(N2CCC(c3cc(C)c4c(c3)Nc3nccc(C5CCOCC5)c3CO4)CC2)C1 [Compound 73] |  |  |  |  |  |  | CDK7_A549 Wild-type CDK7 (pIC50) [1]: 7.32; CDK7_A549 mutant hCDK7(pIC50) [2]: <5; CDK7 (20 nM enz.) (kinact/KI, M^−1*s^−1) ([3]; 20 nM enzyme): 1301.8 M⁻¹ s⁻¹
27 | C=CC(=O)N1CC(N2CCC(c3ccc4c(c3)Nc3nccc(N5CCOC6(CC6)C5)c3CO4)CC2)C1 [Compound 77] | 182 | > 10000 | 1010 | 0.0571 | 5.75e-05 |  | 
28 | C=CC(=O)N1CCC(N2CCC(c3cc(C)c4c(c3)Nc3nccc(N5CCOCC5)c3CO4)CC2)C1 (stereo not shown) [Compound 78] | 26.9 | 8130 |  |  |  | 908 | 
29 | C=CC(=O)N1CC(N2CCC(O)(c3ccc4c(c3)Nc3nccc(N5CCOCC5)c3CO4)CC2)C1 [Compound 80] | 417 | > 10000 | 740 | 0.0563 | 4.16e-05 |  | 
30 | C=CC(=O)N1CC(N2CCC(c3cc(C)c4c(c3)Nc3nccc(C5=CCS(=O)(=O)CC5)c3CO4)CC2)C1 [Compound 81] | 417 | > 10000 | 640 | 0.067 | 4.29e-05 |  | 
31 | C=CC(=O)N1CC(N2CCC(c3cc(Br)c4c(c3)Nc3nccc(C5CCOCC5)c3CO4)CC2)C1 [Compound 82] | 46.8 | 7940 |  |  |  | 1570 | 
32 | C=CC(=O)N1CC(N2CCC(c3ccc4c(c3)Nc3nccc(N5CCS(=O)(=NC)CC5)c3CO4)CC2)C1 [Compound 84] | 575 | > 10000 | 354 | 0.191 | 6.74e-05 |  | 
33 | C=CC(=O)N1CC(N2CCC(c3cc4c(c(C5CC5)c3)OCc3c(C5CCOCC5)ccnc3N4)CC2)C1 [Compound 87] | 81.3 | > 10000 |  |  |  | 1420 | 
34 | C=CC(=O)N1CC(N2CC(c3ccc4c(c3)Nc3nccc(N5CCOCC5)c3CO4)C2)C1 [Compound 88] | 162 | > 10000 |  |  |  | 1050 | 
35 | C=CC(=O)N=S1(=O)CCN(c2ccnc3c2COc2ccc(C4CCN(C5CN(C(=O)C=C)C5)CC4)cc2N3)CC1 [Compound 94] | > 10000 | > 10000 | 11.2 | 3.37 | 3.79e-05 |  | 
36 | C=CC(=O)N1CCC(N2CC(c3ccc4c(c3)Nc3nccc(C5CCOCC5)c3CO4)C2)CC1 [Compound 96] | 123 | > 10000 |  | 0.184 |  |  | CDK7 (20 nM enz.) (kinact, s^−1) ([3]; 20 nM enzyme): 4.701e-05 s⁻¹; CDK7 (20 nM enz.) (kinact/KI, M^−1*s^−1) ([3]; 20 nM enzyme): 255.867 M⁻¹ s⁻¹
